The text below walks through data of patent publication US20140005163A1 (NOVARTIS AG, priority 2010, published 2014).

pIC50: −log10 of the molar value. Converted amounts (≈) assume the structure as drawn.

Series [1] in a line: Solubility at pH 6.8. Type of series: physicochemical. Particulars: pH 6.8, aqueous buffer, thermodynamic from solid; read-out: solubility. The method in brief: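 Following the procedure of Zhou et al. (2007), compound solubility was determined at pH 6.8.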
Series [2] concerns the target T1, mTOR (Homo sapiens, UniProt P42345).
T1 construct: purchased Invitrogen Corporation (Carlsbad/CA, USA) PV4753
The series is described as follows: Biochemical assay for m-TOR by TR-FRET. Particulars: 8 μM ATP, 400 nM GFP-4EBP1, 0.5 nM mTOR. The method in brief:
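Enzyme 0.5 nM, GFP-4EBP1 400 nM, ATP 8 μM (all final); 50 mM HEPES pH 7.5, 10 mM MnCl2, 1 mM DTT; rt. Detection: Tb-α-p4EBP1 [pT46] 0.5 nM in EDTA, TR-FRET, 15 min. Reference compound on every plate, 16-point duplicate dilutions.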
On the technique in general: Time-resolved FRET reads energy transfer from a long-lived donor to a nearby acceptor.

The test system of series [3] is S6 Ribosomal Protein phosphorylation Ser235/236 in TSC1 null mouse embryo fibroblast (MEF) cells. Briefly: Reverse protein array assay, S6 Ribosomal Protein phosphorylation Ser235/236 in TSC1 null MEF cells. Type of series: cell-based. Particulars: 1 h, pS6 ribosomal protein Ser235/236, 60 minutes incubation, read-out: p-S6 IC50. Put shortly:
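TSC1−/− MEFs, seeded and held ≥20 h at 37 °C/5% CO2, were exposed to 8-step serial compound dilutions (0.02% DMSO final; DMSO vehicle control) for 60 min at 37 °C. Cells were then lysed on ice for 10 min and lysates spotted onto reverse protein array chips.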

The target in series [4] is T2, PI3K delta (Homo sapiens, UniProt O00329).
T2 construct: for the full-length p110-d subunit are generated and fused by overlapping PCR; p85(iSH2) fusion partner (see partner chain) (N); His tag (C); made in house; host or cells: baculovirus; Tn5 (Trichoplusia ni) or TiniPro insect cells
T2 sequence (O00329 with tags, fused parts or gaps limits assumed): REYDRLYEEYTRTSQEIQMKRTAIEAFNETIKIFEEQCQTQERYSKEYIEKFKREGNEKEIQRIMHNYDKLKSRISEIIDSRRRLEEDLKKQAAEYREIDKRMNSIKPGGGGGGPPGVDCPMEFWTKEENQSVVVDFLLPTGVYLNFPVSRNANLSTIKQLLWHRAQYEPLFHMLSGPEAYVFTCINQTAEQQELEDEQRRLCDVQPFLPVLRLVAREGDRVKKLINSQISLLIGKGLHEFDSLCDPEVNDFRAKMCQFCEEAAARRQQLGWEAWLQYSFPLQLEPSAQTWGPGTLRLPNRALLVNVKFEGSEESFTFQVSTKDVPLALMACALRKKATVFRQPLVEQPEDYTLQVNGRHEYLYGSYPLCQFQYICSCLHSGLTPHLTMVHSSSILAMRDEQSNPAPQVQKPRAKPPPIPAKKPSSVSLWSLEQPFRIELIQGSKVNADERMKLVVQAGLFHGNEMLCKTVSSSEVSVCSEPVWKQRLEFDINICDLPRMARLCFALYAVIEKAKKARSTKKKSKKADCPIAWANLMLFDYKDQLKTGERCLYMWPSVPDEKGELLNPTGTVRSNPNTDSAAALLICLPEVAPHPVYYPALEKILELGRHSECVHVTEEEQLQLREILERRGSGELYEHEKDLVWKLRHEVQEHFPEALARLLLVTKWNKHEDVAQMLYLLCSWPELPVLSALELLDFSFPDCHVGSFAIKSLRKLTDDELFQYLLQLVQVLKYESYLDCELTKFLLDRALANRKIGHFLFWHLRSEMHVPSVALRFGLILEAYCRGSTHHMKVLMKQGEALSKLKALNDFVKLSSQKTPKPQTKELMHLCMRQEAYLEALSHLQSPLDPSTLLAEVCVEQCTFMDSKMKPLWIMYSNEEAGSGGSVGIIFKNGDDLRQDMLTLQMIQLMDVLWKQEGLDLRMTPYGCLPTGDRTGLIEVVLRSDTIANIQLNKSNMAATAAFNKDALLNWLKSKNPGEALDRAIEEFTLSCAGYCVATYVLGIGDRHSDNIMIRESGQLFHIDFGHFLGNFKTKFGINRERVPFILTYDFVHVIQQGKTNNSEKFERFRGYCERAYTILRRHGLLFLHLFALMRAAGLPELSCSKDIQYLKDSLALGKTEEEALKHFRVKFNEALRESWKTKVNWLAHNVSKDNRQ
Briefly: PI3K delta kinase assay (Kinase-Glo luminescence). Format: biochemical. Put shortly:
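Recombinant p85(iSH2)-Gly linker-p110δ full-length construct (BV1060, C-terminal His tag) was used at 10 nM with 10 μg/mL phosphatidylinositol and 1 μM ATP in 10 mM Tris-HCl pH 7.5, 3 mM MgCl2, 50 mM NaCl, 0.05% CHAPS, 1 mM DTT. After 60 min at room temperature, remaining ATP was measured by Kinase-Glo luminescence.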

T1 sequence (P42345 1360-2549 limits assumed): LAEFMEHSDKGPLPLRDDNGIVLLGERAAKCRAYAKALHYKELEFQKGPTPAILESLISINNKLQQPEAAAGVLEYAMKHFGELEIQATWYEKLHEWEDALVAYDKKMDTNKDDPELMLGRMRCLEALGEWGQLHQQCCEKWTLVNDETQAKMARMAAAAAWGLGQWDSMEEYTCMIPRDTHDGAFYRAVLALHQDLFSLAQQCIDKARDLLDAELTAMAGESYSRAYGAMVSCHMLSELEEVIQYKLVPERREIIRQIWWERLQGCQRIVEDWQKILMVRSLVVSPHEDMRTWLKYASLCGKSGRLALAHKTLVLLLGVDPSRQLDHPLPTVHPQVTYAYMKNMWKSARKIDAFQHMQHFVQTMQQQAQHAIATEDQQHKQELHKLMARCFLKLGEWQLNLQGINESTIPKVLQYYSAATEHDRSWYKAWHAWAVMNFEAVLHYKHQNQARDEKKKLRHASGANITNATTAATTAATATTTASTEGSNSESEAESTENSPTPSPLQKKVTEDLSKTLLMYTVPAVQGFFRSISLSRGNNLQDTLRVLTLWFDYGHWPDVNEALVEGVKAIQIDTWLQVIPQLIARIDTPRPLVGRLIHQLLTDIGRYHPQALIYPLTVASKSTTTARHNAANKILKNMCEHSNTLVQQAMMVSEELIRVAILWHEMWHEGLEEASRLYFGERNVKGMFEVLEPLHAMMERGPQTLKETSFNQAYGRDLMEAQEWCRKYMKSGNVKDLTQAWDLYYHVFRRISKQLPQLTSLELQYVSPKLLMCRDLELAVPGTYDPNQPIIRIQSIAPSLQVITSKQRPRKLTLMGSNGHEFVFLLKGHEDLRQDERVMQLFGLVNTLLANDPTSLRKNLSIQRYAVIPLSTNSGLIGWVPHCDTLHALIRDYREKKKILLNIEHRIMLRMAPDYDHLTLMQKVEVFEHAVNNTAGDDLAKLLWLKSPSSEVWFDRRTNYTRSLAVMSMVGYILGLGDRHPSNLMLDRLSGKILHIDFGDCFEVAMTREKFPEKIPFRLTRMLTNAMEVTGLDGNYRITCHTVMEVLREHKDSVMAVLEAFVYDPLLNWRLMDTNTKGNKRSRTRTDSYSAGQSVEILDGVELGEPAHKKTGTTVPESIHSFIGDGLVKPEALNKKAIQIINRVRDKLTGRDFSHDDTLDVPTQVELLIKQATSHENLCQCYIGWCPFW

Consider `CNc1cc(-c2ccc3ncc4c(c3c2)n(-c2cn(C)nc2C)c(=O)n4C)cnc1CO` [Example 158.1, 1-(1,3-Dimethyl-1H-pyrazol-4-yl)-8-(6-hydroxymethyl-5-methylamino-pyridin-3-yl)-3-methyl-1,3-dihydro-imidazo[4,5-c]quinolin-2-one], for which, in series [1], the solubility – broadly, the concentration that dissolves in the medium under given conditions – is greater than 0.429 mg/mL. The pIC50 – broadly, the IC50 on a negative log10 scale, so that one unit is a factor of ten – is 8.40 in series [2], 8.10 in series [3] and 7.82 in series [4].

With `CCCOc1ccc(-c2ccc3ncc4c(c3c2)n(-c2cn(C)nc2C)c(=O)n4C)cn1` [Example 55, 1-(1,3-Dimethyl-1H-pyrazol-4-yl)-3-methyl-8-(6-propoxy-pyridin-3-yl)-1,3-dihydro-imidazo[4,5-c]quinolin-2-one], the solubility in series [1] turned out to be 0.003 mg/mL (≈ 7 µM). Besides, the pIC50 was 7.60 in series [2], 7.74 in series [3] and 6.88 in series [4].

As to `CNc1ccc(-c2ccc3ncc4c(c3c2)n(-c2cn(C(C)C)nc2C)c(=O)n4C)cn1` [Example 118.1, 1-(1-isopropyl-3-methyl-1H-pyrazol-4-yl)-3-methyl-8-(6-methylamino-pyridin-3-yl)-1,3-dihydro-imidazo[4,5-c]quinolin-2-one], the solubility in series [1] amounted to 0.003 mg/mL (≈ 7.02 µM). Further, the pIC50 in series [2] is 8.30; in series [3] it was 8.30; in series [4] it was 7.74.

As to `Cc1nn(C)cc1-n1c(=O)n(C)c2cnc3ccc(-c4cccnc4)cc3c21` [Example 10.2, 1-(1,3-Dimethyl-1H-pyrazol-4-yl)-3-methyl-8-pyridin-3-yl-1,3-dihydro-imidazo[4,5-c]quinolin-2-one], the solubility in series [1] stood at 0.042 mg/mL (≈ 113 µM). Besides, the pIC50 in series [2] was 7.32; in series [3] it was 7.62; in series [4], 6.95.

As to `Cc1nn(CC(=O)N(C)C)c(C)c1-n1c(=O)n(C)c2cnc3ccc(-c4ccc(-n5cccn5)cc4)cc3c21` [Example 51.4, 2-{3,5-Dimethyl-4-[3-methyl-2-oxo-8-(4-pyrazol-1-yl-phenyl)-2,3-dihydro-imidazo[4,5-c]quinolin-1-yl]pyrazol-1-yl}-N,N-dimethyl-acetamide], in series [1], the solubility came to 0.011 mg/mL (≈ 21.1 µM). Further, the pIC50 was 7.00 in series [2], 7.96 in series [3] and 6.22 in series [4].

For the compound `CCOc1ccc(-c2ccc3ncc4c(c3c2)n(-c2cn(CCOC)nc2C)c(=O)n4C)cn1` [Example 131, 8-(6-Ethoxy-pyridin-3-yl)-1-[1-(2-methoxy-ethyl)-3-methyl-1H-pyrazol-4-yl]-3-methyl-1,3-dihydro-imidazo[4,5-c]quinolin-2-one], in series [1], the solubility came to 0.004 mg/mL (≈ 8.72 µM). Moreover, the pIC50 in series [2] was 6.84; in series [3], 8.30; in series [4] it was 6.57.

Consider `CNc1ncc(-c2ccc3ncc4c(c3c2)n(-c2cn(C(C)C)nc2C)c(=O)n4C)cc1CO` [Example 171, 8-(5-Hydroxymethyl-6-methylamino-pyridin-3-yl)-1-(1-isopropyl-3-methyl-1H-pyrazol-4-yl)-3-methyl-1,3-dihydro-imidazo[4,5-c]quinolin-2-one], for which, in series [1], the solubility was 0.005 mg/mL (≈ 10.9 µM). Further, the values for the pIC50 in series [2], in series [3] and in series [4] were greater than 8.52, 8.52 and 7.85, respectively.

As for `COc1ccc(-c2ccc3ncc4c(c3c2)n(-c2c(C)nn(C)c2C)c(=O)n4C)cc1OC` [Example 1.9, 8-(3,4-Dimethoxy-phenyl)-3-methyl-1-(1,3,5-trimethyl-1H-pyrazol-4-yl)-1,3-dihydro-imidazo[4,5-c]quinolin-2-one], the solubility in series [1] came to 0.315 mg/mL (≈ 710 µM). Moreover, the pIC50 is 6.51 in series [2], 7.36 in series [3] and 7.74 in series [4].

Turning to `Cc1nn(C)cc1-n1c(=O)n(C)c2cnc3ccc(-c4ccc(N5CCN(C)CC5)nc4)cc3c21` [Example 96, 1-(1,3-Dimethyl-1H-pyrazol-4-yl)-3-methyl-8-[6-(4-methyl-piperazin-1-yl)-pyridin-3-yl]-1,3-dihydro-imidazo[4,5-c]quinolin-2-one], the solubility in series [1] is greater than 0.469 mg/mL. Further, the pIC50 in series [2] was 7.06; in series [3], 8.15; in series [4], 6.70.

In the case of `COc1cc(-c2ccc3ncc4c(c3c2)n(-c2cn(C)nc2Cl)c(=O)n4C)cnc1CO` [Example 194.2, 1-(3-chloro-1-methyl-1H-pyrazol-4-yl)-8-(6-hydroxymethyl-5-methoxy-pyridin-3-yl)-3-methyl-1,3-dihydro-imidazo[4,5-c]quinolin-2-one], the solubility in series [1] stood at 0.094 mg/mL (≈ 208 µM). Besides, the pIC50 is 8.22 in series [2], 8.70 in series [3] and greater than 8.52 in series [4].

`Cc1ncc(-c2ccc3ncc4c(c3c2)n(-c2cn(C)nc2C)c(=O)n4C)cc1N` [Example 88.2, 8-(5-Amino-6-methyl-pyridin-3-yl)-1-(1,3-dimethyl-1H-pyrazol-4-yl)-3-methyl-1,3-dihydro-imidazo[4,5-c]quinolin-2-one]: in series [1], the solubility came out at 0.136 mg/mL (≈ 340 µM). The pIC50 in series [2] is 7.89; in series [3] it was 8.15; in series [4] it was 8.10.

Turning to `CCNc1cncc(-c2ccc3ncc4c(c3c2)n(-c2cn(C)nc2C)c(=O)n4C)c1` [Example 122, 1-(1,3-Dimethyl-1H-pyrazol-4-yl)-8-(5-ethylamino-pyridin-3-yl)-3-methyl-1,3-dihydro-imidazo[4,5-c]quinolin-2-one], the solubility in series [1] was found to be 0.005 mg/mL (≈ 12.1 µM). Further, the pIC50 in series [2] is 8.30; in series [3], greater than 9.30; in series [4], 7.85.

As to `CCn1cc(-n2c(=O)n(C)c3cnc4ccc(-c5ccc(COC)nc5)cc4c32)c(C)n1` [Example 104, 1-(1-Ethyl-3-methyl-1H-pyrazol-4-yl)-8-(6-methoxymethyl-pyridin-3-yl)-3-methyl-1,3-dihydro-imidazo[4,5-c]quinolin-2-one], the solubility in series [1] is 0.004 mg/mL (≈ 9.33 µM). Moreover, the pIC50 in series [2] is 7.28; in series [3], 7.41; in series [4], 6.85.

For `COc1ncc(-c2ccc3ncc4c(c3c2)n(-c2cn(C(C)C)nc2C)c(=O)n4C)c(OC)n1` [Example 234.3, 8-(2,4-Dimethoxy-pyrimidin-5-yl)-1-(1-isopropyl-3-methyl-1H-pyrazol-4-yl)-3-methyl-1,3-dihydro-imidazo[4,5-c]quinolin-2-one], the solubility in series [1] is 0.013 mg/mL (≈ 28.3 µM). In addition, the pIC50 in series [2] is 7.77; in series [3] it was 8.70; in series [4], greater than 8.52.

For `CCn1cc(-n2c(=O)n(C)c3cnc4ccc(-c5ccc(CO)nc5)cc4c32)c(C)n1` [Example 16.1, 1-(1-ethyl-3-methyl-1H-pyrazol-4-yl)-8-(6-hydroxymethyl-pyridin-3-yl)-3-methyl-1,3-dihydro-imidazo[4,5-c]quinolin-2-one], in series [1], the solubility stood at 0.075 mg/mL (≈ 181 µM). The pIC50 was 7.47 in series [2], 7.48 in series [3] and 7.60 in series [4].

In the case of `Cc1nn(C)cc1-n1c(=O)n(C)c2cnc3ccc(-c4cncc(OC(CF)CF)c4)cc3c21` [Example 182, 1-(1,3-Dimethyl-1H-pyrazol-4-yl)-8-[5-(2-fluoro-1-fluoromethyl-ethoxy)-pyridin-3-yl]-3-methyl-1,3-dihydro-imidazo[4,5-c]quinolin-2-one], in series [1], the solubility came to 0.056 mg/mL (≈ 121 µM). For the same compound, the pIC50 is 8.22 in series [2], 8.30 in series [3] and 8.10 in series [4].

`COc1cc(-c2ccc3ncc4c(c3c2)n(-c2cn(CCO)nc2C)c(=O)n4C)cnc1C` [Example 211.1, 1-[1-(2-Hydroxy-ethyl)-3-methyl-1H-pyrazol-4-yl]-8-(5-methoxy-6-methyl-pyridin-3-yl)-3-methyl-1,3-dihydro-imidazo[4,5-c]quinolin-2-one]: in series [1], the solubility came to 0.003 mg/mL (≈ 6.75 µM). Besides, the pIC50 in series [2] is 7.89; in series [3] it was 7.68; in series [4], 7.85.

In the case of `CNc1cc(-c2ccc3ncc4c(c3c2)n(-c2cn(C)nc2Cl)c(=O)n4C)cnc1COC` [Example 160.1, 1-(3-Chloro-1-methyl-1H-pyrazol-4-yl)-8-(6-methoxymethyl-5-methylamino-pyridin-3-yl)-3-methyl-1,3-dihydro-imidazo[4,5-c]quinolin-2-one], the solubility in series [1] amounted to 0.032 mg/mL (≈ 69 µM). Also, the pIC50 in series [2] is greater than 8.52; in series [3] it was greater than 9.30; in series [4], greater than 8.52.

Consider `CNc1ccc(-c2ccc3ncc4c(c3c2)n(-c2cn(CC(=O)N(C)C)nc2C)c(=O)n4C)cn1` [Example 118.3, N,N-Dimethyl-2-{3-methyl-4-[3-methyl-8-(6-methylamino-pyridin-3-yl)-2-oxo-2,3-dihydro-imidazo[4,5-c]quinolin-1-yl]-pyrazol-1-yl}-acetamide], for which, in series [1], the solubility worked out at 0.021 mg/mL (≈ 44.6 µM). Moreover, the negative logarithm of the IC50 (pIC50) in series [2] is 8.05; in series [3], 7.82; in series [4], 7.08.
